Experiments:
[1] = tested on: 4T1BR cells; assay: Cell death by propidium iodide flow cytometry; assay type: cell-based; conditions: 100 μM, 48 hours
Protocol: (§1) Cells were prepared according to manufacturer protocol (BD Pharmingen, Propidium Iodine). Briefly, cells were trypsinized (0.25% Trypsin), counted, washed twice with 1xPBS, and resuspended in 100uL 1X binding buffer incubated with 5 uL Propidium Iodine (PI) staining solution for 15 min in the dark at room temperature. Following incubation, the volume was brought up to 500uL of 1X binding buffer. Tubes were then analyzed using a Guava easyCyte flow cytometer. All data were collected and analyzed using a Guava EasyCyte Plus system and CytoSoft (version 5.3) software (Millipore). Data are gated and expressed relative to the appropriate unstained and single-stained controls.

[2] = tested on: MDA-MB-231BR cells; assay: Cell death by propidium iodide flow cytometry; assay type: cell-based; conditions: 100 μM, 48 h
Protocol: as §1

[3] = tested on: 4T1BR tumor bearing brain slices; assay: Ex vivo tumor-brain slice model; parameters: species or system nu/nu mice; conditions: 4T1BR brain slices, 100 μM, 6 days, bioluminescence
Protocol: Ex vivo brain slice tumor model was performed as previously described ([Ciraku et al., 2021]). Briefly, Nu/Nu athymic 4–6 week old mice Charles River Laboratories (Wilmington, MA, United States) were immobilized using the Just for Mice Stereotaxic Frame (Harvard Apparatus, Holliston, MA, United States) and injected intracranially with 5uL of 20,000 cells/uL solution of luciferase tagged MDA-MB-231BR or 4T1BR cells. Tumor growth was monitored via bioluminescence imaging on the IVIS system (Perkin Elmer, Waltman, MA, United States). Organotypic hippocampal cultures were prepared as described previously ([Ciraku et al., 2021]). Briefly, adult mice (4–6 weeks) or mice after 12 days following intracranial injection were decapitated and their brains rapidly removed into ice-cold (4°C) sucrose-aCSF composed of the following (in mM): 280 sucrose, 5 KCl, 2 MgCl2, 1 CaCl2, 20 glucose, 10 HEPES, 5 Na^+-ascorbate, 3 thiourea, 2 Na^+-pyruvate; pH = 7.3. […] Tumor growth was monitored via bioluminescence imaging on the IVIS 200 system (Perkin Elmer), and results were analyzed using Living Image software (Caliper Life Sciences, Waltham, MA, United StatesUnited States). […] Tissues were incubated at 37 ℃ , 5% CO2 for 4 h, and absorbance at 490 nm was measured with a Tecan Spark Microplate reader.

**Q.** Which “cell death (PI+ cells)” value [1] does the source give for `N[C@H](C(=O)N1CCCC(c2ccccc2)(c2ccccc2)C1)C1CC1` [AD-8007] here?
**A.** significantly increased cell death

**Q.** What about the “cell death (PI+ cells)” value [2] of the same molecule?
**A.** significantly increased cell death

**Q.** And the “tumor growth of preformed tumors ex vivo” value [3]?
**A.** significantly reduced tumor growth of preformed tumors

From PMC11137182, “Selective and brain-penetrant ACSS2 inhibitors target breast cancer brain metastatic cells” (Frontiers in Pharmacology, 2024)
